Results reported in ChEMBL document CHEMBL2029241, “Synthesis, characterization and in vitro anti-tumor activities of matrine derivatives” (Bioorg Med Chem Lett, 2012).
Converted amounts (≈) assume the structure as drawn.

Key:
Type in all cases: functional, cell-based
[1] = tested on: B16-F10; assay: Cytotoxicity against mouse B16F10 cells after 48 hrs by MTT assay
[2] = tested on: A549; assay: Cytotoxicity against human A549 cells after 48 hrs by MTT assay
[3] = Cytotoxicity against human HEP7402 cells after 48 hrs by MTT assay
[4] = Cytotoxicity against human TW03 cells after 48 hrs by MTT assay
[5] = Mus musculus, B16-F10, 48 h, read-out: IC50
[6] = Homo sapiens, A549, 48 h, read-out: IC50
[7] = Homo sapiens, 48 h, read-out: IC50
[8] = Homo sapiens, TW03, 48 h, read-out: IC50

Structure (SMILES)	IC50 [1, 5]	IC50 [2, 6]	IC50 [3, 7]	IC50 [4, 8]	IC50 ([1]; b16-f10)	IC50 [3]	IC50 ([4]; tw03)	IC50 ([2]; a549)
O=C1/C(=C/c2ccc([N+](=O)[O-])cc2)CC[C@@H]2[C@H]3CCCN4CCC[C@@H](CN12)[C@@H]34	2.8 µg/mL (≈ 7.34 µM)	6.2 µg/mL (≈ 16.3 µM)	8.7 µg/mL (≈ 22.8 µM)	3.7 µg/mL (≈ 9.7 µM)	–	–	–	–
O=C1/C(=C/c2ccc(Cl)cc2)CC[C@@H]2[C@H]3CCCN4CCC[C@@H](CN12)[C@@H]34	3.9 µg/mL (≈ 10.5 µM)	2.6 µg/mL (≈ 7.01 µM)	1.6 µg/mL (≈ 4.31 µM)	2.8 µg/mL (≈ 7.55 µM)	–	–	–	–
O=C(c1ccccc1)C1CC[C@@H]2[C@H]3CCCN4CCC[C@@H](CN2C1=O)[C@@H]34 (stereo partly drawn)	10.6 µg/mL (≈ 30.1 µM)	3.6 µg/mL (≈ 10.2 µM)	4.3 µg/mL (≈ 12.2 µM)	2.4 µg/mL (≈ 6.81 µM)	–	–	–	–
O=C1/C(=C/c2ccc(Br)cc2)CC[C@@H]2[C@H]3CCCN4CCC[C@@H](CN12)[C@@H]34	2.6 µg/mL (≈ 6.26 µM)	1.9 µg/mL (≈ 4.57 µM)	0.7 µg/mL (≈ 1.69 µM)	3.2 µg/mL (≈ 7.7 µM)	–	–	–	–
O=C1/C(=C/c2cccc([N+](=O)[O-])c2)CC[C@@H]2[C@H]3CCCN4CCC[C@@H](CN12)[C@@H]34	8.5 µg/mL (≈ 22.3 µM)	7.6 µg/mL (≈ 19.9 µM)	5.3 µg/mL (≈ 13.9 µM)	2.4 µg/mL (≈ 6.29 µM)	–	–	–	–
COC(=O)CCCC1NCC2CCCN3CCCC1C23 (stereo not drawn)	–	31.4 µg/mL (≈ 112 µM)	–	–	Not Active	Not Active	Not Active	–
O=C1/C(=C/c2ccccc2)CC[C@@H]2[C@H]3CCCN4CCC[C@@H](CN12)[C@@H]34	5.7 µg/mL (≈ 16.9 µM)	4.6 µg/mL (≈ 13.7 µM)	10 µg/mL (≈ 29.7 µM)	2.4 µg/mL (≈ 7.13 µM)	–	–	–	–
O=C1/C(=C/c2ccc(F)cc2)CC[C@@H]2[C@H]3CCCN4CCC[C@@H](CN12)[C@@H]34	2.5 µg/mL (≈ 7.05 µM)	3 µg/mL (≈ 8.46 µM)	1.8 µg/mL (≈ 5.08 µM)	1.9 µg/mL (≈ 5.36 µM)	–	–	–	–
O=C(c1cccs1)C1CC[C@@H]2[C@H]3CCCN4CCC[C@@H](CN2C1=O)[C@@H]34 (stereo partly drawn)	4.5 µg/mL (≈ 12.6 µM)	2.3 µg/mL (≈ 6.42 µM)	7.5 µg/mL (≈ 20.9 µM)	8.1 µg/mL (≈ 22.6 µM)	–	–	–	–
CCOC(=O)CCCC1NCC2CCCN3CCCC1C23 (stereo not drawn)	–	32.3 µg/mL (≈ 110 µM)	–	–	Not Active	Not Active	Not Active	–
C1CCN2C[C@@H]3CCCN4CCC[C@@H]([C@H]34)[C@H]2C1	–	–	–	–	Not Active	Not Active	Not Active	Not Active
O=C1/C(=C/c2ccncc2)CC[C@@H]2[C@H]3CCCN4CCC[C@@H](CN12)[C@@H]34	6.2 µg/mL (≈ 18.4 µM)	5.7 µg/mL (≈ 16.9 µM)	8.6 µg/mL (≈ 25.5 µM)	4.4 µg/mL (≈ 13 µM)	–	–	–	–
COc1cc(/C=C2\CC[C@@H]3[C@H]4CCCN5CCC[C@@H](CN3C2=O)[C@@H]45)cc(OC)c1OC	9.8 µg/mL (≈ 23 µM)	3.8 µg/mL (≈ 8.91 µM)	7.8 µg/mL (≈ 18.3 µM)	5.5 µg/mL (≈ 12.9 µM)	–	–	–	–
COc1cccc(/C=C2\CC[C@@H]3[C@H]4CCCN5CCC[C@@H](CN3C2=O)[C@@H]45)c1	8.7 µg/mL (≈ 23.7 µM)	2.3 µg/mL (≈ 6.28 µM)	3.4 µg/mL (≈ 9.28 µM)	6.4 µg/mL (≈ 17.5 µM)	–	–	–	–
O=C1/C(=C/c2cccc(F)c2)CC[C@@H]2[C@H]3CCCN4CCC[C@@H](CN12)[C@@H]34	2.7 µg/mL (≈ 7.62 µM)	3.4 µg/mL (≈ 9.59 µM)	1.5 µg/mL (≈ 4.23 µM)	2.2 µg/mL (≈ 6.21 µM)	–	–	–	–
NC(=O)CCCC1NCC2CCCN3CCCC1C23 (stereo not drawn)	12.9 µg/mL (≈ 48.6 µM)	18.6 µg/mL (≈ 70.1 µM)	11.4 µg/mL (≈ 43 µM)	21.7 µg/mL (≈ 81.8 µM)	–	–	–	–
O=C1CCC[C@@H]2[C@H]3CCCN4CCC[C@@H](CN12)[C@@H]34 [MATRINE]	17 µg/mL (≈ 68.4 µM)	9.7 µg/mL (≈ 39.1 µM)	15.3 µg/mL (≈ 61.6 µM)	16.3 µg/mL (≈ 65.6 µM)	–	–	–	–
O=C(c1ccco1)C1CC[C@@H]2[C@H]3CCCN4CCC[C@@H](CN2C1=O)[C@@H]34 (stereo partly drawn)	12.9 µg/mL (≈ 37.7 µM)	6.6 µg/mL (≈ 19.3 µM)	11.8 µg/mL (≈ 34.5 µM)	4.9 µg/mL (≈ 14.3 µM)	–	–	–	–
COc1ccc(/C=C2\CC[C@@H]3[C@H]4CCCN5CCC[C@@H](CN3C2=O)[C@@H]45)cc1	0.8 µg/mL (≈ 2.18 µM)	0.6 µg/mL (≈ 1.64 µM)	0.5 µg/mL (≈ 1.36 µM)	1.2 µg/mL (≈ 3.27 µM)	–	–	–	–
O=C(O)CCCC1NCC2CCCN3CCCC1C23 (stereo not drawn)	–	–	–	–	Not Active	Not Active	Not Active	Not Active
O=C1/C(=C/c2ccc(Cl)c(Cl)c2)CC[C@@H]2[C@H]3CCCN4CCC[C@@H](CN12)[C@@H]34	6.5 µg/mL (≈ 16 µM)	4.7 µg/mL (≈ 11.6 µM)	11.3 µg/mL (≈ 27.9 µM)	6.3 µg/mL (≈ 15.5 µM)	–	–	–	–
COc1cc2c(c(OC)c1OC)-c1ccc(OC)c(=O)cc1[C@@H](NC(C)=O)CC2 [COLCHICINE]	0.8 µg/mL (≈ 2 µM)	0.2 µg/mL (≈ 0.501 µM)	0.4 µg/mL (≈ 1 µM)	1.3 µg/mL (≈ 3.25 µM)	–	–	–	–
